For the series, the system named is HeLa cells. Kind of series: Cytotoxicity test, MTT assay. The format is cell-based. The conditions noted are these: amount of 1 μg. As for the experimental part: HeLa cells were cultured for 2 to 3 days in a 100 mm culture dish (SPL, Pocheon-si, Korea) in a 5% CO2 incubator. When 95% of the cells were grown, the cells were detached by trypsin-EDTA treatment. Thereafter, for a toxicity test, the cells were inoculated at a density of 7,000 cells/well in a 24-well plate. For cell attachment, the cells were cultured for one day, and for cytotoxicity and anticancer assays, the enzyme, DOX, and DOX-free hollow drug delivery system in the culture medium were used to treat the cells separately. After the materials were cultured for one day, the cytotoxicity was measured using a 3-(4,5-dimethylthiazol-2-yl)-2,5-diphenyltetrazolium bromide (MTT) assay. An MTT solution (5 mg/mL) in PBS was used to treat the cells for 2 hours in an incubator, the cells were dissolved in DMSO, and the absorbance at a wavelength of 540 nm was measured using a plate reader (SpectraMax 340 PC; Molecular Devices, Sunnyvale, Calif., USA).
The anticancer effect of the DOX-conjugated drug delivery system was investigated through a cytotoxicity test. In this case, 1 μg of the DOX-conjugated hollow drug delivery systems of Preparation Examples 4 and 5 were used. A cell culture medium was composed of 90% Dulbecco's Modified Eagle Medium, 10% fetal bovine serum, and 1% penicillin-streptomycin-glutamine. […]

One compound from patent US11173116B2, “Drug delivery system kit comprising an enzyme” (INDUSTRY-ACADEMIC COOPERATION FOUNDATION, YONSEI UNIVERSITY, priority 2018, dated 2021) can be followed below.

Where a name gives a salt, the structure may show the parent alone.

As to `COc1cccc2c1C(=O)c1c(O)c3c(c(O)c1C2=O)C[C@@](O)(C(=O)CO)C[C@@H]3O[C@H]1C[C@H](N)[C@H](O)[C@H](C)O1` [DOX, doxorubicin hydrochloride], the cytotoxicity entry was “very high toxicity”.
